Format in all cases: in vivo
Experiment [1] deals with neonatal SMA Δ7 homozygous knockout mice. Kind of experiment: Righting reflex in neonatal Δ7 SMA mice. The following applies: IP QD from PND 3, versus vehicle (FIG. 14). How it is done:
The functional change in righting reflex of neonatal SMA mice is used to determine whether treatment with a test compound improves righting reflex.
Protocol. SMA Δ7 homozygous knockout mice are dosed intraperitoneally (IP) with test compound or vehicle (100% DMSO) QD from PND 3 until the dose regimen is switched to an oral dose BID in 0.5% hydroxypropylmethyl cellulose (HPMC) with 0.1% Tween-80 at a dose 3.16-fold higher than the dose used for IP. The righting reflex time is measured as the time taken by a mouse to flip over onto its feet after being laid on its back. Righting reflex is measured five times for each mouse (allowing a maximal time of 30 sec for each try) with 5 minutes between each measurement. The righting reflex time for SMA Δ7 homozygous knockout mice treated with test compound or vehicle and age-matched heterozygous mice is measured on PND 10, 14 and 18 and plotted.

Experiment [2] has as its system Smn protein. Kind of experiment: Smn protein levels in tissues of Δ7 SMA mice of the survival study. The following applies: spinal cord. How it is done: (§1) Protocol. The tissue samples in Safe-Lock tubes are weighed and the volume of RIPA buffer containing the protease inhibitor cocktail is added based on the weight to volume ratios for each type of tissue: Brain (50 mg/mL), Muscle (50 mg/mL) and Spinal Cord (25 mg/mL).
Tissues are homogenized using the TissueLyzer by bead milling. 5 mm stainless steel beads are added to the sample and shaken vigorously for 5 minutes at 30 Hz in the TissueLyzer. The samples are then centrifuged for 20 minutes at 14,000×g in a microcentrifuge and the homogenates transferred to the PCR plate. […] Fluorescence for each well of the plate at 665 nm and 620 nm is measured on an EnVision multilabel plate reader (Perkin-Elmer). The total protein in the tissue homogenate is measured using the BCA assay according to the manufacturer's protocol.
(§2) The normalized fluorescence signal is calculated for each sample, Blank and vehicle control well by dividing the signal at 665 nm by the signal at 620 nm. Normalizing the signal accounts for possible fluorescence quenching due to the matrix effect of the tissue homogenate. […] The ΔF value for each tissue sample well is divided by the total protein quantity (determined using the BCA assay) for that tissue sample. […]
Protocol. […] The number of surviving mice in each group is recorded every day and plotted as a percent of total number of mice. […]

Experiment [3] can be described thus: Body weight of neonatal Δ7 SMA mice. The following applies: neonatal SMA Δ7 homozygous knockout mice. How it is done:
The change in body weight of neonatal SMA mice is used to determine whether treatment with a test compound improves body weight.
Protocol. SMA Δ7 homozygous knockout mice are dosed intraperitoneally (IP) with test compound or vehicle (100% DMSO) QD from PND 3 until the dose regimen is switched to an oral dose BID in 0.5% hydroxypropylmethyl cellulose (HPMC) with 0.1% Tween-80 at a dose 3.16-fold higher than the dose used for IP. Body weights of SMA Δ7 mice treated with test compound or vehicle and age matched heterozygous mice are recorded every day.

In experiment [4] the test system is neonatal SMA Δ7 homozygous knockout mice. Briefly: Survival of neonatal Δ7 SMA mice. The procedure: The change in the number of surviving mice over time is used to determine whether treatment with a test compound improves survival.
Protocol. SMA Δ7 homozygous knockout mice are dosed intraperitoneally (IP) with test compound or vehicle (100% DMSO) QD from PND 3 until the dose regimen is switched to an oral dose BID in 0.5% hydroxypropylmethyl cellulose (HPMC) with 0.1% Tween-80 at a dose 3.16-fold higher than the dose used for IP and later switched to an oral dose QD in 0.5% hydroxypropylmethyl cellulose (HPMC) with 0.1% Tween-80 at a dose 6.32-fold higher than the dose used for IP. The number of surviving mice in each group is recorded every day and plotted as a percent of total number of mice. Tissues of SMA Δ7 and age-matched heterozygous mice are collected for the measurement of Smn protein levels and processed as detailed in Example 10. The total protein normalized Smn protein levels measured in the tissues are plotted as a percent of those in the age-matched heterozygous mice tissues, with the Smn level in heterozygous mice set to 100 percent. The level of Smn protein in the test compound treated mice tissue relative to that in heterozygous mice tissue is indicated as a percent value above each bar in the graph.

For experiment [5], the system named is Smn protein produced from the SMN2 gene. Briefly: Smn protein in tissues of neonatal Δ7 SMA mice. The following applies: neonatal SMA Δ7 homozygous knockout mice, IP QD PND 3 to PND 9, brain, spinal cord. The procedure:
This Smn protein assay compares tissues from test compound treated mice with those from DMSO vehicle treated mice to determine the increase in levels of Smn protein produced from the human SMN2 gene.
as §1
Tissues are homogenized using the TissueLyzer by bead milling. 5 mm stainless steel beads are added to the sample and shaken vigorously for 5 minutes at 30 Hz in the TissueLyzer. […] Fluorescence for each well of the plate at 665 nm and 620 nm is measured on an EnVision multilabel plate reader (Perkin-Elmer). The total protein in the tissue homogenate is measured using the BCA assay according to the manufacturer's protocol.
as §2

The values that follow come from patent US11753407B2, “Compounds for treating spinal muscular atrophy” (PTC Therapeutics, Inc., priority 2012, dated 2023).

Turning to `COc1ccc(-c2cc(=O)n3cc(N4CCNCC4)ccc3n2)cc1OC` [Cpd 6, 2-(3,4-dimethoxyphenyl)-7-(piperazin-1-yl)-4H-pyrido[1,2-a]pyrimidin-4-one], the righting reflex result in experiment [1] is “improved compared to vehicle treated mice”. Also, in experiment [2] (IP 10 mg/kg QD PND 3-30, then orally 30 mg/kg BID PND 31-156, brain, muscle (FIG. 16a)), the Smn protein expression entry is “increased Smn protein expression in brain, spinal cord, and muscle tissues”. Also, the body weight entry in experiment [3] (IP QD PND 3 to PND 30, then orally BID from PND 31 until study end (FIG. 13a)) is on record as “improved compared to vehicle treated mice”. The survival result in experiment [4] (IP QD PND 3 to PND 30, then orally BID from PND 31 until study end (FIG. 15a)) is “improved compared to vehicle treated mice”. In addition, the “total protein normalized Smn level” value in experiment [5] (muscle, skin (FIGS. 12a-d)) was “dose dependently increased in brain, spinal cord, muscle, and skin tissues”.
On to `Cc1cn2nc(-c3cc(=O)n4cc(N5CCN(C)CC5)ccc4n3)cc2c(C)n1` [Cpd 170, 2-(4,6-dimethylpyrazolo[1,5-a]pyrazin-2-yl)-7-(4-methylpiperazin-1-yl)-4H-pyrido[1,2-a]pyrimidin-4-one], for which the righting reflex result in experiment [1] was “improved compared to vehicle treated mice”. Besides, the Smn protein expression entry in experiment [2] (IP 3 mg/kg QD PND 3-23, orally 10 mg/kg BID PND 24-88, orally 20 mg/kg QD PND 89-185, brain, muscle (FIG. 16b)) was “increased Smn protein expression in brain, spinal cord, and muscle tissues”. Moreover, in experiment [3] (IP QD PND 3 to PND 23, then orally BID from PND 24 until study end (FIG. 13b)), the body weight result is “improved compared to vehicle treated mice”. Moreover, the survival entry in experiment [4] (IP QD PND 3 to PND 23, then orally BID from PND 24 until study end (FIG. 15b)) is recorded as “improved compared to vehicle treated mice”. In experiment [5] (muscle (FIGS. 12e-g)), the “total protein normalized Smn level” value is recorded as “dose dependently increased”.
